ChEMBL document CHEMBL4665643 (Bioorg Med Chem Lett, 2019)

What was measured:
[1] = biological target: Glycogen synthase kinase-3 beta (Homo sapiens) (UniProt P49841); assay: Inhibition of recombinant human N-terminal GST-tagged full length GSK3beta expressed in baculovirus expression system using Ser/Thr 09 as substrate at 0.1 uM incubated for 60 mins by Z'-Lyte assay relative to control
[2] = biological target: Fibroblast growth factor receptor 4 (Homo sapiens) (UniProt P22455); assay: Inhibition of recombinant human His-tagged FGFR4 ([…]) expressed in baculovirus expression system using Tyr 04 as substrate at 0.1 uM incubated for 60 mins by Z'-Lyte assay relative to control
Sequence of Fibroblast growth factor receptor 4 (Homo sapiens) (P22455 22-802 limits assumed): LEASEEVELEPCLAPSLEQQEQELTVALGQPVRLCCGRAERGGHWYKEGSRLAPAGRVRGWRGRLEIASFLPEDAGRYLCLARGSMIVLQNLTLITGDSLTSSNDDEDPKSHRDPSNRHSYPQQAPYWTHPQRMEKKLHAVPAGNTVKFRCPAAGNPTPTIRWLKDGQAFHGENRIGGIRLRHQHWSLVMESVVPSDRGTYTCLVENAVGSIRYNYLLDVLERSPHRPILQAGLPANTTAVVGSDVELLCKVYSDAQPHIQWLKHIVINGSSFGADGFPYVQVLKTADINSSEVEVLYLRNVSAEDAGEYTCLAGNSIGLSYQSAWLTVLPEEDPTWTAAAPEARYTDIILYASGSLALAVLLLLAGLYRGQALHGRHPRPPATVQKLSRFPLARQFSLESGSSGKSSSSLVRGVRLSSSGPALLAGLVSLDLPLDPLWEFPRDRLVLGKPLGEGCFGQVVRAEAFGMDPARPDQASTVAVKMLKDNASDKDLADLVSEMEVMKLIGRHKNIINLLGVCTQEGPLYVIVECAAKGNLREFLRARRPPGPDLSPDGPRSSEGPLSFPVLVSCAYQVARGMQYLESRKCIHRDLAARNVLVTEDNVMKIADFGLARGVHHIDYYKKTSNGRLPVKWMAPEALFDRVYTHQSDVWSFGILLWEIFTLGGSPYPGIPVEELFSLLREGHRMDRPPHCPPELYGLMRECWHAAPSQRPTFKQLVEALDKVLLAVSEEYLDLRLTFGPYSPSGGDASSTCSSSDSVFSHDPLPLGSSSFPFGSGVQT

[3] = biological target: Calcium/calmodulin-dependent protein kinase type 1D (Homo sapiens) (UniProt Q8IU85); assay: Inhibition of recombinant human His-tagged full length CAMK1delta expressed in baculovirus expression system using Ser/Thr 25 as substrate at 0.1 uM incubated for 60 mins by Z'-Lyte assay relative to control
Sequence of Calcium/calmodulin-dependent protein kinase type 1D (Homo sapiens) (Q8IU85 whole entry, looked up, the tested form may be a part): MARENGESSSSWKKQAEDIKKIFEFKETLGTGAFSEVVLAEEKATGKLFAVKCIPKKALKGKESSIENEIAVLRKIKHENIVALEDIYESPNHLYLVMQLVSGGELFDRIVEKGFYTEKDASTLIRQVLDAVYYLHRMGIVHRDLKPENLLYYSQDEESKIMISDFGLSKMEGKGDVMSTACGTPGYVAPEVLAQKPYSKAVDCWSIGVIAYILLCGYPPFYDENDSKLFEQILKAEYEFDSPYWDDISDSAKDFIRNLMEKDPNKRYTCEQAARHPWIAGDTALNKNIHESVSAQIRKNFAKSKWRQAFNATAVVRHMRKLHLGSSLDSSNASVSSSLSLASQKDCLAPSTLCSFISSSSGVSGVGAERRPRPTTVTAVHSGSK

LRRK2 = LRRK2 (Homo sapiens, UniProt Q5S007); assay: Inhibition of recombinant human GST-tagged LRRK2 (970 to 2527 residues) expressed in baculovirus expression system using LRRKtide as substrate at 0.1 uM incubated for 60 mins by Adapta assay relative to control; details: probe LRRKtide
Sequence of LRRK2 (Q5S007 whole entry, the tested form may be a part): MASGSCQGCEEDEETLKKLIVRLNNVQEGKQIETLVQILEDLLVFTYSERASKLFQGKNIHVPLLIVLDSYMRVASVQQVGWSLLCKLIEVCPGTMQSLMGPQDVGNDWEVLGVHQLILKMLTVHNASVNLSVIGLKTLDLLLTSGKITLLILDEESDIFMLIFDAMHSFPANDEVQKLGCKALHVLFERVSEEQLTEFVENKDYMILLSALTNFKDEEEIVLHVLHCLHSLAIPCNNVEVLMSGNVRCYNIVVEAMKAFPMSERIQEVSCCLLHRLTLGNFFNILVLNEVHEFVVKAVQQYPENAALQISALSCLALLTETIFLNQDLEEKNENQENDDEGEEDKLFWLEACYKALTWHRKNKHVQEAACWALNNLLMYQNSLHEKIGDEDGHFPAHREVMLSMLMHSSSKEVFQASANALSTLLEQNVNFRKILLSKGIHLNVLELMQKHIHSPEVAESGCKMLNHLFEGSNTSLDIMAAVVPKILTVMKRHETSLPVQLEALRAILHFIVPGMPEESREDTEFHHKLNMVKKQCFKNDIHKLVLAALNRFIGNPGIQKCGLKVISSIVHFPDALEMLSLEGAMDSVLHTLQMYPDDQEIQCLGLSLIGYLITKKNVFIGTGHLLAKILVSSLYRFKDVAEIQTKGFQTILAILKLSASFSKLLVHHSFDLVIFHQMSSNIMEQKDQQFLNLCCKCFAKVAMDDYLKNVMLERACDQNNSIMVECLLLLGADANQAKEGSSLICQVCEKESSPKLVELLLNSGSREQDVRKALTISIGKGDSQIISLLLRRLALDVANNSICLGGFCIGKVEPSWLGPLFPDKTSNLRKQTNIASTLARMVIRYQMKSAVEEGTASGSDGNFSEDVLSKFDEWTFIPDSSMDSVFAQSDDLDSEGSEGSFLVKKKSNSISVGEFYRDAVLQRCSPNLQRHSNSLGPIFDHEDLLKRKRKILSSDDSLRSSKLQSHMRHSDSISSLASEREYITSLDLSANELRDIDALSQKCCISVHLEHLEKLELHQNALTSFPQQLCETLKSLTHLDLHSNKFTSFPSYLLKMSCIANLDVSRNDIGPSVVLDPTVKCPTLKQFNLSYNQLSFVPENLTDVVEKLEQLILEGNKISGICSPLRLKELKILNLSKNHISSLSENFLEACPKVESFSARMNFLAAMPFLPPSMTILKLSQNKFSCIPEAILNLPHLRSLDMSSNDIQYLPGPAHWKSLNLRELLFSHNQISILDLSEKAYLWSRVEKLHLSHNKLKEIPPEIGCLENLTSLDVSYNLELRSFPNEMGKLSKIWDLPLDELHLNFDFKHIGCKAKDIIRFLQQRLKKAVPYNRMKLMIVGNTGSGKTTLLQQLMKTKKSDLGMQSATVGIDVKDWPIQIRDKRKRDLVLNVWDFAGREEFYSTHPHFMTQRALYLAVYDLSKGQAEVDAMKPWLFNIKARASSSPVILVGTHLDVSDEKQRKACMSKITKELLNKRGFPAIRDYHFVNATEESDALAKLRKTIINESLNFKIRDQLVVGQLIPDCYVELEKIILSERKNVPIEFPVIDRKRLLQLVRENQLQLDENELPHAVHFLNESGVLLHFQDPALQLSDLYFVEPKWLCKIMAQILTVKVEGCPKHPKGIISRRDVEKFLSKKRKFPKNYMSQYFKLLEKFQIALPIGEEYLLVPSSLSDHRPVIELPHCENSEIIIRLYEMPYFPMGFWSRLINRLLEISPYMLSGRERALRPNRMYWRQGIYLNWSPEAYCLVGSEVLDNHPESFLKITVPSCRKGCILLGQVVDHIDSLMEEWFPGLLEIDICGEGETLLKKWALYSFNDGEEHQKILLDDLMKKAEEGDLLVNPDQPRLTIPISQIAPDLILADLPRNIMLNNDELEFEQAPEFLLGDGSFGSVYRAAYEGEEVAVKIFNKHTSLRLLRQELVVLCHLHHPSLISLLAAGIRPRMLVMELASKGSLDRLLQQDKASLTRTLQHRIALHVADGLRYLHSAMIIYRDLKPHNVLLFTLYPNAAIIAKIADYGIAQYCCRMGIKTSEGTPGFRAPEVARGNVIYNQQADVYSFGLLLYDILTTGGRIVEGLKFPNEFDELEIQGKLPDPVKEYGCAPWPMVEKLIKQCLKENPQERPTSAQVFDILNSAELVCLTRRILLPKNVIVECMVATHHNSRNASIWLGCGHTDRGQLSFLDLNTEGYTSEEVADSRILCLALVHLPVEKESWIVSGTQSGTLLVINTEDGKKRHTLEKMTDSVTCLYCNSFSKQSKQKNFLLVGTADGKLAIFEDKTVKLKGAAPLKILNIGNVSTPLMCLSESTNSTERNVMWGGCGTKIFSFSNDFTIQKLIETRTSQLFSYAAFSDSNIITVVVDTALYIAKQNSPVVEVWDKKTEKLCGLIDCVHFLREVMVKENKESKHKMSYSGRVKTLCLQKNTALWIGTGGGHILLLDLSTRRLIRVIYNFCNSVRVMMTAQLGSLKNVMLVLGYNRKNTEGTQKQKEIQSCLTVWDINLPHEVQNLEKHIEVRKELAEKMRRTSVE

[4] = biological target: Mitogen-activated protein kinase 3 (Homo sapiens) (UniProt P27361); assay: Inhibition of recombinant human GST-tagged full length ERK1 expressed in Escherichia coli expression system using Ser/Thr 03 as substrate at 0.1 uM incubated for 60 mins by Z'-Lyte assay relative to control
[5] = biological target: T1, G protein-coupled receptor kinase 3 (Homo sapiens) (UniProt P35626); assay: Inhibition of recombinant human GST-tagged full length GRK3 expressed in baculovirus expression system using Ser/Thr 16 as substrate at 0.1 uM incubated for 60 mins by Z'-Lyte assay relative to control
T1 sequence (whole entry): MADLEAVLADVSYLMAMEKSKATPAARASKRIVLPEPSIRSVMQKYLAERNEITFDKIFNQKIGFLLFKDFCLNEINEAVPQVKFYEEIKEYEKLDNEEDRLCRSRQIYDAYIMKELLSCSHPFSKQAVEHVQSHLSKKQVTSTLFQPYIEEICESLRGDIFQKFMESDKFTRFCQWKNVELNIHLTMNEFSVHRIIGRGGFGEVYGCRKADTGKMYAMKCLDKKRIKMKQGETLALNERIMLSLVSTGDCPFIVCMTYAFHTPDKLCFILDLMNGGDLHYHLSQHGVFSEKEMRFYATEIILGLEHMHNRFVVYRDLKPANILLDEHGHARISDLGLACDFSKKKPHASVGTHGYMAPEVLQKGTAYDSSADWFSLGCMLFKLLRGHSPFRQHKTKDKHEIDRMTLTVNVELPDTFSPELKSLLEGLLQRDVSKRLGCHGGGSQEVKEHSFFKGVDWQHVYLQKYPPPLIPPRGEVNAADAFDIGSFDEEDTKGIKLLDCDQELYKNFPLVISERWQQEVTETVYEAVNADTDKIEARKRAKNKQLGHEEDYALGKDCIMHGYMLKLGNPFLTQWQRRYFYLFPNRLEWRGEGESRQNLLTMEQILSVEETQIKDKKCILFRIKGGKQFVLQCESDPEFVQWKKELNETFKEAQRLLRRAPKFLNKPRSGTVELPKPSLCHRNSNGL

[6] = biological target: MAP kinase-activated protein kinase 2 (Homo sapiens) (UniProt P49137); assay: Inhibition of recombinant human His-tagged full length MAPKAPK2 expressed in Escherichia coli expression system using Ser/Thr 04 as substrate at 0.1 uM incubated for 60 mins by Z'-lyte assay relative to control
Sequence of MAP kinase-activated protein kinase 2 (Homo sapiens) (P49137 whole entry, looked up): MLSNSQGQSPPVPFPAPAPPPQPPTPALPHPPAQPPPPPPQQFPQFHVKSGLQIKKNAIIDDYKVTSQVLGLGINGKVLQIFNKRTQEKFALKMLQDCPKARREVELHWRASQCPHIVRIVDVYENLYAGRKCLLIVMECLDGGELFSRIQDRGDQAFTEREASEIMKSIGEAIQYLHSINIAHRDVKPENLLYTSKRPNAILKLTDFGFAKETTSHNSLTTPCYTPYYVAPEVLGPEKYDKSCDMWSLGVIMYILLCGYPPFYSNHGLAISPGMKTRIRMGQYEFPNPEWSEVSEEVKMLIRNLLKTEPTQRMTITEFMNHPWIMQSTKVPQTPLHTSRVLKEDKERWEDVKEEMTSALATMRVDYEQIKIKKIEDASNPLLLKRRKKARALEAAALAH

[7] = biological target: Protein kinase C alpha type (Homo sapiens) (UniProt P17252); assay: Inhibition of recombinant human His-tagged full length PKCalpha expressed in Escherichia coli expression system using Ser/Thr 07 as substrate at 0.1 uM incubated for 60 mins by Z'-lyte assay relative to control
[8] = biological target: T2, Inhibitor of nuclear factor kappa-B kinase subunit beta (Homo sapiens) (UniProt O14920); assay: Inhibition of recombinant human GST-tagged full length IKKbeta expressed in baculovirus expression system using Ser/Thr 05 as substrate at 0.1 uM incubated for 60 mins by Z'-Lyte assay relative to control
T2 sequence (whole entry): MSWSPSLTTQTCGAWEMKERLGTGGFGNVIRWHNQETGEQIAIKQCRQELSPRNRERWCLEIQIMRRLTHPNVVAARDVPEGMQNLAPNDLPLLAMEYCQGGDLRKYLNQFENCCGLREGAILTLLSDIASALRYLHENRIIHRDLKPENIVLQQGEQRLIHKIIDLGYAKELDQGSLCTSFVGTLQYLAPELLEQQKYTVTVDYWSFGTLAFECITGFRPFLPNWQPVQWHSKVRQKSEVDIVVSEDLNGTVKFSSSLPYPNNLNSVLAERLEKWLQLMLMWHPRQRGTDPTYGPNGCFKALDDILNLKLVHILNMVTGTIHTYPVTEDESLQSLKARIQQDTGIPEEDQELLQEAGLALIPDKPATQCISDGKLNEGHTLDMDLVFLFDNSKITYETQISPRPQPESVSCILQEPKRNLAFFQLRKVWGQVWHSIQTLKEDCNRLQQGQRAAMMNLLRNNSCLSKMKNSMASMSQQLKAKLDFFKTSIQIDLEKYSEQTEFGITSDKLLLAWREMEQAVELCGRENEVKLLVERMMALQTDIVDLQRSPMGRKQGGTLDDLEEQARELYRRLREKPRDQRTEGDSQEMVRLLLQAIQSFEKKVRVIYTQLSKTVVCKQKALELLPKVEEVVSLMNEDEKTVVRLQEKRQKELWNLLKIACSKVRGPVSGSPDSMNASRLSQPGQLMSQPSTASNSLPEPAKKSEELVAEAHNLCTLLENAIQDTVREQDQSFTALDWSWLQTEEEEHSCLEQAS

[9] = biological target: Ribosomal protein S6 kinase alpha-5 (Homo sapiens) (UniProt O75582); assay: Inhibition of recombinant human GST-tagged full length MSK1 expressed in baculovirus expression system using Ser/Thr 01 as substrate at 0.1 uM incubated for 60 mins by Z'-lyte assay relative to control
Sequence of Ribosomal protein S6 kinase alpha-5 (Homo sapiens) (O75582 whole entry, looked up): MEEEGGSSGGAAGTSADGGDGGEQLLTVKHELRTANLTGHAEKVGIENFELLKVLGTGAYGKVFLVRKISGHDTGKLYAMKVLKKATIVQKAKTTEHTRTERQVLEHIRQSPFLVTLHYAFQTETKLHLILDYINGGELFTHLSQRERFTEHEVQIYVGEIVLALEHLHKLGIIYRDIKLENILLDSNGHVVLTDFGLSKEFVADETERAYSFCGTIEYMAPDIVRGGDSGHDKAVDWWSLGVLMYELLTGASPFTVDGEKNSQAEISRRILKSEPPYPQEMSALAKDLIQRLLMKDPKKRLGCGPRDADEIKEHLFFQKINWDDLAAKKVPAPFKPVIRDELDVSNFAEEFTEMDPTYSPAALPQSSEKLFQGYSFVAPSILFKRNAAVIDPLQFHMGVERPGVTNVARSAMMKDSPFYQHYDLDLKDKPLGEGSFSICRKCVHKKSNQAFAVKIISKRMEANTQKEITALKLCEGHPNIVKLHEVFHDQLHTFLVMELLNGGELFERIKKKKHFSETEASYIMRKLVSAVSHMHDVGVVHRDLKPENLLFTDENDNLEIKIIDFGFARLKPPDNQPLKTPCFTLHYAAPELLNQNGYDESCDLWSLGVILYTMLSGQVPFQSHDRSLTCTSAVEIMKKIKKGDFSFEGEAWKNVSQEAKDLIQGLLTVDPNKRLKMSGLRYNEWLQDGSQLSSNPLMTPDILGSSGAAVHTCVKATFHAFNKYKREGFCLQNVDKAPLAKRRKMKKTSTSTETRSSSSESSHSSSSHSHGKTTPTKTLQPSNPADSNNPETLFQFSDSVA

SMILES | inhibition [1] | inhibition [2] | inhibition [3] | inhibition at 1 h, 0.1 µM (LRRK2) | inhibition [4] | Ratio IC50 (Homo sapiens) | inhibition [5] | inhibition [6] | inhibition [7] | inhibition [8] | inhibition [9]
Cn1cc(NC(=O)c2cnn3cccnc23)c(-c2cc(Cl)ccc2OC(F)F)n1 | -3% | 5% | 6% | 61% | 4% | 47 | 3% | 10% | 11% | 5% | 5%
O=C(Nc1c[nH]nc1-c1cc2ccccc2cc1OC(F)F)c1cnn2cccnc12 | 7% | 4% | 15% | 31% | 0% | 83 | 1% | 6% | 1% | -3% | -2%
O=C(Nc1c[nH]nc1-c1cc(Cl)ccc1OC(F)F)c1cnn2cccnc12 | 7% | -1% | 8% | 87% | 5% | 15 | -1% | 0% | 12% | 2% | 3%
